Measurements reported in PubChem BioAssay (NCI).
Values joined by “and” are separate entries in the source; they are usually repeats but may differ in a detail not shown here. Identical values can stand only once.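 Compound exposure: 48 hours, 5 concentrations, 96-well plates. GI50 is the concentration that inhibits growth by half. At the TGI there is no net growth.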

What was measured:
Test in all cases: DTP human tumour cell line panel, 48 h
CAKI-1 renal = tested on: CAKI-1 renal
CCRF-CEM leukemia = tested on: CCRF-CEM leukemia
HCT-116 colon = tested on: HCT-116 colon
MCF7 breast = tested on: MCF7 breast
NCI-H522 lung = tested on: NCI-H522 lung
SW-620 colon = tested on: SW-620 colon
T-47D breast = tested on: T-47D breast
UO-31 renal = tested on: UO-31 renal

Compound	TGI (CAKI-1 renal)	TGI (CCRF-CEM leukemia)	TGI (HCT-116 colon)	TGI (MCF7 breast) [µM]	TGI (NCI-H522 lung)	TGI (SW-620 colon) [µM]	TGI (T-47D breast)	TGI (UO-31 renal)	GI50 (CAKI-1 renal) [µM]	GI50 (CCRF-CEM leukemia) [µM]	GI50 (NCI-H522 lung)	GI50 (T-47D breast) [µM]	GI50 (MCF7 breast)
CC(C)C(C/C=C1/CC(CO)(COC(=O)CC(C(C)C)C(C)C)OC1=O)C(C)C (configuration not stated)	16.5 µM	29.9 µM	35.1 µM	28.4	26.5 µM	18.1	22.9 µM	19.9 µM					
COc1cccc2cc(C(N)=O)c(=N)oc12	> 100 µM	> 100 µM	> 100 µM			> 100	> 100 µM						
COc1cc(N=NN(C)C)c(C(C)c2c3cc(OC)c(OC)cc3cc[n+]2C)cc1OC (configuration not stated)	> 100 µM	> 100 µM	> 100 µM	> 100		> 100	76.2 µM	> 100 µM					
C=C=C(C)[Si](C)(C)C	> 100 µM	> 100 µM	> 100 µM	> 100	> 100 µM	> 100	> 100 µM	> 100 µM					
COc1cc(OC)c2c(c1OC)OCC(Cc1ccc(O)cc1)C2=O (configuration not stated)	> 25 µM	> 25 µM	> 25 µM		> 25 µM	> 25	> 25 µM	> 25 µM					
c1ccc(N=C2SC(=NNc3ccccc3)SC2=Nc2ccccc2)cc1	> 100 µM	> 100 µM	> 100 µM		> 100 µM	> 100	> 100 µM	> 100 µM					
CCOP(=O)(Nc1ccc(-c2ccccc2)cc1)OCC	> 100 µM		> 100 µM	> 100	> 100 µM			> 100 µM					
NNC(=O)c1c(Cl)c(Cl)c(Cl)c(Cl)c1-c1nc2ccccc2[nH]1	38 µM	54.2 µM	32.6 µM	23	> 100 µM	67.6	24 µM	39.5 µM					
O=C1NC2(CCCCC2)N=C2C(Cl)CCCC12Cl (configuration not stated)		> 100 µM		> 100	> 100 µM	> 100	> 100 µM	> 100 µM					
O=C(CN1CCN(C(=O)OCc2ccccc2)CCN(CC(=O)N2CCCCC2)CCN(C(=O)OCc2ccccc2)CC1)N1CCCCC1	28.9 µM	> 49.8 µM	18.5 µM	44.6	19 µM	> 53.5	38.8 µM	30.6 µM					
CCC1CC2CN3CCc4c([nH]c5c(-c6c(OC)ccc7c8c([nH]c67)[C@]6(C(=O)OC)CC7CC(CC)C6N(CC8)C7)c(O)ccc45)[C@](C(=O)OC)(C2)C13 (some centres not stated)	25.2 µM	> 100 µM	25.7 µM	22.9	31.6 µM	25.6	23 µM	27.1 µM					
Cc1ccc(/C=C/C(=O)c2c([O-])on[n+]2-c2ccccc2)cc1	3.87 µM	> 100 µM	3.65 µM	19	8.06 µM		9.49 µM	6.24 µM					
CC(=O)O[C@H]1CC[C@]2(C)[C@H]3CC[C@@H]4[C@H]5[C@H](C(C)C)CC[C@]5(C(=O)OCC(CO)(CO)N=C(N)N)CC[C@@]4(C)[C@]3(C)CC[C@H]2C1(C)C	2.98 µM	5.51 µM			3.16 µM		2.91 µM		1.46	2.24	1.6 µM	1.51	
O=C(Cn1nc(Br)c(Br)c1Br)c1ccccc1	96.7 µM	23 µM	38.6 µM	83.6	83.6 µM	> 100	89.1 µM	57 µM					
CC(=O)O[C@H]1C[C@]2(C)C(CCC3O[C@@]32C)[C@@]2(CC(c3ccoc3)OC2O)[C@@H]1C (some centres not stated)	> 100 µM	88.3 µM	> 100 µM	> 100	> 100 µM	> 100	> 100 µM	> 100 µM					
CCc1n[nH]c(=O)n1N1C(=O)C2CC=CCC2C1=O (configuration not stated)	> 100 µM	> 100 µM	> 100 µM	> 100	> 100 µM	> 100	> 100 µM	> 100 µM					
Cc1ccc2c(c1)NC(=O)CCSSCCC(=O)N2	> 100 µM	> 100 µM	> 100 µM		> 100 µM	> 100	> 100 µM	> 100 µM					
O=C1c2ccccc2CC12Cc1cc3c(cc1C2=O)CCC3 (configuration not stated)	> 100 µM	> 100 µM	> 100 µM	> 100	> 100 µM	> 100	> 100 µM	> 100 µM					
COc1ccc(C2SCC(=O)N2c2ccc(-c3ccc(-n4c(-c5ccccc5)nc5ccccc5c4=O)cc3)cc2)cc1 (configuration not stated)	> 100 µM	> 100 µM	> 100 µM	> 100	> 100 µM	> 100	> 100 µM	> 100 µM					
CN(C)CCNc1ccc([N+](=O)[O-])c2nc3ccccc3c(N)c12	> 10 µM	> 10 µM	1.91 µM	> 10		3.74	3.7 µM	4.27 µM					
O=C(CSc1nc(=O)[nH]c2nc[nH]c12)Nc1ccccc1	> 100 µM	> 100 µM	> 100 µM	> 100	> 100 µM	> 100	> 100 µM	> 100 µM					
CCCNC(=S)N/N=C/c1cccc(C)n1		7.05 µM	29 µM	> 100	37 µM		> 100 µM	> 100 µM					
O=c1[nH]c2ccc(CC(=S)N3CCOCC3)cc2s1	> 100 µM	> 100 µM	> 100 µM	> 100		> 100							
C/C(=N\Nc1ccc([N+](=O)[O-])cc1[N+](=O)[O-])c1ccc2ccccc2n1	> 100 µM		> 100 µM	> 100	55.7 µM	> 100	> 100 µM	> 100 µM					
COC(=O)CC1(CNC(=O)OCc2ccccc2)OCCO1	> 100 µM	> 100 µM	> 100 µM	> 100	> 100 µM	> 100		> 100 µM					
N#CCC(=O)Nn1c(CC#N)nnc1Cc1ccccc1	> 100 µM		> 100 µM	> 100	> 100 µM	> 100	> 100 µM	> 100 µM					
CCOc1ccc2c(c1)/C(=C(\C(Cl)=C(Cl)Cl)[N+](=O)[O-])N2	> 100 µM	> 100 µM	> 100 µM	> 100		> 100	> 100 µM	> 100 µM					

Compound	TGI (CAKI-1 renal)	TGI (CCRF-CEM leukemia)	TGI (HCT-116 colon)	TGI (MCF7 breast) [µM]	TGI (NCI-H522 lung)	TGI (SW-620 colon) [µM]	TGI (T-47D breast)	TGI (UO-31 renal)	GI50 (CAKI-1 renal) [µM]	GI50 (CCRF-CEM leukemia) [µM]	GI50 (NCI-H522 lung)	GI50 (T-47D breast) [µM]	GI50 (MCF7 breast)
COc1cc(/C=C/C(C)=O)ccc1OP(=O)(O)O	> 100 µM		> 100 µM	> 100	> 100 µM	> 100		> 100 µM					
Cc1nn(C(=O)c2ccc(Cl)cc2)c2c1C(c1ccc([N+](=O)[O-])cc1)SC(N)=N2 (configuration not stated)	> 10 µM	> 10 µM	> 10 µM	> 10	> 10 µM	> 10	> 10 µM						
N#Cc1[nH]c(=O)n(-c2ccc(Cl)cc2)c1N	> 10 µM	> 10 µM	> 10 µM	> 10	> 10 µM		> 10 µM						
CC1C(c2ccc3c(c2)OCO3)c2cc3c(cc2OC1N1CCCC1)OCO3 (configuration not stated)	38.6 µM	76.1 µM	54.8 µM	> 100	80.4 µM	> 100	> 100 µM	73 µM					
NNC(=O)CNC(=O)CSc1nnc(COc2ccc(Cl)cc2)n1-c1ccccc1	> 100 µM	> 100 µM	> 100 µM	> 100	> 100 µM	> 100	> 100 µM	> 100 µM					
CN1CCC2(CC1)C(=O)N(N1CCCCCC1)C(=O)N2c1ccccc1	> 100 µM	> 100 µM	> 100 µM	> 100	> 100 µM	> 100	> 100 µM	> 100 µM					
CCCN1C(=O)CCC2=C1CCc1c2ccc(Cl)c1Cl	> 100 µM	> 100 µM	> 100 µM	> 100	91.4 µM	> 100	> 100 µM	> 100 µM					
COc1cc([C@@H]2c3cc4c(cc3[C@@H](NCCNCCO)[C@H]3COC(=O)[C@H]23)OCO4)cc(OC)c1O	30.1 µM and > 59.5 µM	0.567 µM and 0.695 µM	44 µM and 32.9 µM	> 36.7	> 22 µM and 6.55 µM	> 100	11.9 µM and 8.93 µM	50 µM and 39.9 µM		0.123	2.22 µM and 1.05 µM		0.183 µM and 0.0876 µM
O=C(/C=C/c1ccc(O)c(O)c1)OCCc1cccc2ccccc12	20.7 µM	11.2 µM	14.6 µM	25.7	4.17 µM	18.9	42.3 µM	18.4 µM					
COc1ccc(/C=C2\CSC/C(=C\c3ccc(OC)c(OC)c3OC)C2=O)c(OC)c1OC		> 100 µM	39 µM	> 100		58.6	> 100 µM	> 100 µM					
CCOc1ccccc1/C=C1\NC(=O)N(/C=C2\C(=O)Oc3ccccc3C2=O)C1=O	> 100 µM	59.1 µM	> 100 µM	> 100	> 100 µM	> 100		75 µM					
CCSC1=N/C(=C\c2ccccc2O)C(Nc2ccc(C)cc2)=N1	> 100 µM	> 100 µM	> 100 µM		94.4 µM	> 100	> 100 µM	> 100 µM					
O=C1c2ccccc2-c2nc(-c3cccnc3)cc3c2c1nc1ccccc13	> 100 µM	> 100 µM	> 100 µM	> 100	> 100 µM	> 100		> 100 µM					
CC(C)(C)c1ccc(CN2CCN(C(c3ccccc3)c3ccc(Cl)cc3)CC2)cc1 (configuration not stated)	> 100 µM		> 100 µM	> 100	85.1 µM	> 100	54.9 µM	> 100 µM					
c1ccc(C2SCC3=Nc4ccccc4CN32)cc1 (configuration not stated)	> 100 µM	> 100 µM	51.9 µM	> 100		> 100	> 100 µM	> 100 µM					
Cc1csc2nc(-c3ccc([N+](=O)[O-])cc3)c(/C=N/N=C(N)N)n12	12.6 µM	4.11 µM	3.76 µM		3.08 µM		> 100 µM	2.88 µM					
C=C(C=O)c1c2c(nc3ccccc13)C(=O)c1ccccc1C2=O	0.795 µM	0.792 µM	3.48 µM		2.09 µM		3.29 µM	> 29 µM					
Cc1cccc(Nc2cn(COCc3ccccc3)c(=O)[nH]c2=O)c1	> 100 µM	> 100 µM	> 100 µM	> 100	97.2 µM	> 100		> 100 µM					
CC[C@@]1(O)C(=O)OCc2c1cc1n(c2=O)Cc2c-1nc1ccccc1c2CC[Si](C)(C)C	0.207 µM		0.116 µM	> 100	1.55 µM	> 100	> 27.7 µM	0.056 µM					
Cc1nc2c(o1)C(=O)c1ccccc1/C2=N/c1ccccn1	47.9 µM	65.7 µM	41.8 µM	33.9	35.9 µM	31.6		39.3 µM					
O=P(O)(O)C(O)/C=C/c1ccccc1 (configuration not stated)	> 100 µM		> 100 µM	> 100	> 100 µM	> 100	> 100 µM	> 100 µM					
COC(=O)C1=Nc2c(C)nn(-c3ccccc3)c2N=C(c2ccc(C)cc2)C1	> 10 µM		> 10 µM	> 10	> 10 µM	> 10	> 10 µM						
CCOP(=O)(/C=C\n1cnc2c(=O)n(C(C)=O)c(N)nc21)OCC	> 100 µM	> 100 µM	> 100 µM	> 100		> 100	> 100 µM						
CC1CCCC2=C1C(c1ccc(Cl)cc1)n1c(s/c(=C\c3ccc(Cl)cc3)c1=O)=N2 (configuration not stated)	> 100 µM	> 100 µM	> 100 µM	> 100		> 100	> 100 µM	> 100 µM					
CC(=O)Nc1ncc(Sc2ccccc2C(=O)O)s1	> 100 µM	> 100 µM	> 100 µM	> 100		> 100	> 100 µM	> 100 µM					
N#Cc1c(-c2ccccc2)/c(=C\O)c(=O)n2c1nc1ccccc12	> 100 µM	> 100 µM	> 100 µM		> 100 µM	> 100	> 100 µM	> 100 µM					
